Measured values as given in patent US7465727B2, “(1,10B-dihydro-2-(aminoalkyl-phenyl)-5H-pyrazolo[1,5-c][1,3]Benzoxazin-5-yl)phenyl methanone derivatives as HIV viral replication inhibitors” (priority 2005, dated 2008).
Like-named read-outs stand apart in the source and are kept apart here.

How the values were obtained:
[1] = system: multi-drug resistant HIV-1 virus (HIV-1-MDR); assay: microbe, parasite or virus in culture; assay type: cell-based; settings: for Activity class for HIV-1-MDR test (pEC50 values): MT4-LTR-EGFP cells, three days incubation, GFP signal, average where more than one run
Protocol: (§1) The compounds were tested in a cellular assay using the MT4-LTR-EGFP cells for anti-viral activity. […] The cellular assay was performed according to the following procedure.
(§2) HIV- or mock-infected MT4-LTR-EGFP cells were incubated for three days in the presence of various concentrations of the inhibitor. Upon infection, the GFP reporter is activated by the viral tat protein. At the end of the incubation period, the GFP signal was measured. In the virus control samples (in the absence of any inhibitor) the maximal fluorescent signal was obtained. The inhibitory activity of the compound was monitored on the virus-infected cells and was expressed as EC50 and EC90. These values represent the amount of the compound required to protect 50% and 90%, respectively, of the cells from virus infection.

[2] = system: wild type laboratory HIV strain (HIV-1 strain LAI); assay: microbe, parasite or virus in culture; assay type: cell-based
Protocol: as §1, §2

[3] = MT4-LTR-EGFP cells, three days incubation, GFP signal, average where more than one run

SMILES	Activity class for HIV-1-MDR test (pEC50 values) [1]	Activity class for HIV-1-LAI test (pEC50 values) [2, 3]	Activity class for HIV-1-LAI test (pEC50 values) [2]	EC50 ([1]; Human immunodeficiency virus 1, 72 h, read-out: Activity class for HIV-1-MDR test (pEC50 values) (converted))	EC50 ([2]; Human immunodeficiency virus 1, 72 h, MT4-LTR-EGFP cells, three days incubation, GFP signal, average where more than one run, read-out: Activity class for HIV-1-LAI test (pEC50 values) (converted))
CCN(CC)Cc1ccc(C2=NN3C(C(=O)c4ccc(S(C)(=O)=O)cc4)Oc4ccccc4C3C2)cc1 (stereo not drawn) [Compound 30]	7.95	7.9			
N#Cc1ccc(C(=O)C2Oc3ccccc3C3CC(c4ccc(CNCc5ccccc5)cc4)=NN23)cc1 (stereo not drawn) [Compound 2]	7.83	7.58			
N#Cc1ccc(C(=O)C2Oc3ccccc3C3CC(c4ccc(CNCCN5CCCC5)cc4)=NN23)cc1 (stereo not drawn) [Compound 7]	6.49	6.55			
CN(C)CCCc1ccc(C2=NN3C(C(=O)c4ccc(C#N)cc4)Oc4ccccc4C3C2)cc1 (stereo not drawn) [Compound 16]	5.51		5.6		
N#Cc1ccc(C(=O)C2Oc3ccccc3C3CC(c4ccc(CCNCc5ccccc5)cc4)=NN23)cc1 (stereo not drawn) [Compound 33]	6.07	6.35			
N#Cc1ccc(C(=O)C2Oc3ccccc3C3CC(c4ccc(CCCNCc5ccccn5)cc4)=NN23)cc1 (stereo not drawn) [Compound 31]	5.38	4.85			
CN(C)CCN(C)CCCc1ccc(C2=NN3C(C(=O)c4ccc(C#N)cc4)Oc4ccccc4C3C2)cc1 (stereo not drawn) [Compound 15]	5.52	5.42			
CN(C)CCN(C)Cc1ccc(C2=NN3C(C(=O)c4ccc(C#N)cc4)Oc4ccccc4C3C2)cc1 (stereo not drawn) [Compound 4]	6.25	6.41			
N#Cc1ccc(C(=O)C2Oc3ccccc3C3CC(c4ccc(CCCNCc5ccccc5)cc4)=NN23)cc1 (stereo not drawn) [Compound 17]	5.37	5.56			
COc1ccc(CN(C)CCCCc2ccc(C3=NN4C(C(=O)c5ccc(C#N)cc5)Oc5ccccc5C4C3)cc2)cc1 (stereo not drawn) [Compound 23]	5.32	5.38			
N#Cc1ccc(C(=O)C2Oc3ccccc3C3CC(c4ccc(CNCc5ccccn5)cc4)=NN23)cc1 (stereo not drawn) [Compound 6]	7.28	7.13			
COc1ccc(CN(C)Cc2ccc(C3=NN4C(C(=O)c5ccc(C(C)(C)C)cc5)Oc5ccccc5C4C3)cc2)cc1 (stereo not drawn) [Compound 9]	7	7.28			
N#Cc1ccc(C(=O)C2Oc3ccccc3C3CC(c4ccc(CCCCNCc5ccccn5)cc4)=NN23)cc1 (stereo not drawn) [Compound 26]	4.86	5.28			
CN(Cc1ccc(C2=NN3C(C(=O)c4ccc(C#N)cc4)Oc4ccccc4C3C2)cc1)C1CCCC1 (stereo not drawn) [Compound 13]	8.62	8.32			
COc1ccc(NCCCCc2ccc(C3=NN4C(C(=O)c5ccc(C#N)cc5)Oc5ccccc5C4C3)cc2)cc1 (stereo not drawn) [Compound 20]	6.51		7.42		
CN(C)c1ccc(CNCc2ccc(C3=NN4C(C(=O)c5ccc(C#N)cc5)Oc5ccccc5C4C3)cc2)cc1 (stereo not drawn) [Compound 37]	6.31	6.12			
CCN(CC)Cc1ccc(C2=NN3C(C(=O)c4ccc(C(C)(C)C)cc4)Oc4ccccc4C3C2)cc1 (stereo not drawn) [Compound 11]	7.59	7.64			

SMILES	Activity class for HIV-1-MDR test (pEC50 values) [1]	Activity class for HIV-1-LAI test (pEC50 values) [2, 3]	Activity class for HIV-1-LAI test (pEC50 values) [2]	EC50 ([1]; Human immunodeficiency virus 1, 72 h, read-out: Activity class for HIV-1-MDR test (pEC50 values) (converted))	EC50 ([2]; Human immunodeficiency virus 1, 72 h, MT4-LTR-EGFP cells, three days incubation, GFP signal, average where more than one run, read-out: Activity class for HIV-1-LAI test (pEC50 values) (converted))
CN(CCCCc1ccc(C2=NN3C(C(=O)c4ccc(C#N)cc4)Oc4ccccc4C3C2)cc1)C1CCCC1 (stereo not drawn) [Compound 27]	5.15	5.36			
CN(Cc1ccc(C2=NN3C(C(=O)c4ccc(C#N)cc4)Oc4ccccc4C3C2)cc1)Cc1ccc(N(C)C)cc1 (stereo not drawn) [Compound 36]	7.18	7.45			
CCN(CC)CCc1ccc(C2=NN3C(C(=O)c4ccc(C#N)cc4)Oc4ccccc4C3C2)cc1 (stereo not drawn) [Compound 12]	7.35	7.16			
N#Cc1ccc(C(=O)C2Oc3ccccc3C3CC(c4ccc(CCCCNCc5ccccc5)cc4)=NN23)cc1 (stereo not drawn) [Compound 18]	5.47		5.47		
COc1ccc(NCCCc2ccc(C3=NN4C(C(=O)c5ccc(C#N)cc5)Oc5ccccc5C4C3)cc2)cc1 (stereo not drawn) [Compound 14]	6.34		6.41		
CN(C)CCN(C)CCCCc1ccc(C2=NN3C(C(=O)c4ccc(C#N)cc4)Oc4ccccc4C3C2)cc1 (stereo not drawn) [Compound 22]	5.47	5.52			
COc1ccc(CN(C)Cc2ccc(C3=NN4C(C(=O)c5ccc(C#N)cc5)Oc5ccccc5C4C3)cc2)cc1 (stereo not drawn) [Compound 8]	7.85	7.81			
COc1ccc(CN(C)Cc2ccc(C3=NN4C(C(=O)c5ccc(S(C)(=O)=O)cc5)Oc5ccccc5C4C3)cc2)cc1 (stereo not drawn) [Compound 29]	8.56	8.47			
N#Cc1ccc(C(=O)C2Oc3ccccc3C3CC(c4ccc(CCCCNCc5ccncc5)cc4)=NN23)cc1 (stereo not drawn) [Compound 21]	5.2	5.23			
CN(CCCc1ccc(C2=NN3C(C(=O)c4ccc(C#N)cc4)Oc4ccccc4C3C2)cc1)C1CCCC1 (stereo not drawn) [Compound 35]	5.81	5.76			
COc1ccc(NCc2ccc(C3=NN4C(C(=O)c5ccc(C#N)cc5)Oc5ccccc5C4C3)cc2)cc1 (stereo not drawn) [Compound 5]	6.5		6.22		
CCN(CC)CCCCc1ccc(C2=NN3C(C(=O)c4ccc(C#N)cc4)Oc4ccccc4C3C2)cc1 (stereo not drawn) [Compound 19]	5.43	5.39			
CCN(CC)Cc1ccc(C2=NN3C(C(=O)c4ccc(C#N)cc4)Oc4ccccc4C3C2)cc1 (stereo not drawn) [Compound 1, 4-[4-(4-cyano-benzoyl)-1,9b-dihydro-5-oxa-3,3a-diaza-cyclopenta[a]naphthalen-2-yl]-N,N-diethyl-benzylamine]				8.71 nM	19.1 nM
CN(C)CCN(C)CCc1ccc(C2=NN3C(C(=O)c4ccc(C#N)cc4)Oc4ccccc4C3C2)cc1 (stereo not drawn) [Compound 34]	6.12	6.25			
COc1ccc(CN(C)CCCc2ccc(C3=NN4C(C(=O)c5ccc(C#N)cc5)Oc5ccccc5C4C3)cc2)cc1 (stereo not drawn) [Compound 25]	5.04	6.53			
COc1ccc(CN(C)CCc2ccc(C3=NN4C(C(=O)c5ccc(C#N)cc5)Oc5ccccc5C4C3)cc2)cc1 (stereo not drawn) [Compound 32]	6.72	7.08			
